The source of these data is patent US20050107611A1, “Pyrazolyl-substituted triazoloquinoxalines” (priority 2001, published 2005).

One data set concerns adenosine receptors. The settings on record: in words; development for ischemic stroke halted; cited from earlier work.
Data set [1] addresses T1, A2A adenosine receptor (Rattus norvegicus, UniProt P30543). The data set can be described thus: Receptor binding assay with [3H]MSX-2 on A2A-adenosine receptors. More on the design: tissue Pel Freez Company (Rogers, Ark., USA); host or cells: rat brain striatum membranes. The settings on record: for Ki: Table 2, [3H]MSX-2, read-out: A2A K1. The source says: (§1) The data of the biological tests that are cited below results from radioligand-binding assays on A1, A2A, A2B and A3 adenosine receptors (ARs).
(§2) The following selective radioligands are used in the biological tests: • [^3H]CCPA (for A1 ARs) [Klotz et al., Naunyn-Schmiedeberg's Arch. Pharmacol., 340, 679 (1989)] • [^3]MSX-2 (for A2A ARs) [Muiller et al., Eur. J. Pharm. Sci., 10, 259 (2000)] • [^3H]ZM241385 (for A2B ARs_[X.-D. Ji, K. A. Jacobson, Drug Des. Discov., 16, 217 (1999)] • [^3H]PSB-11 (new antagonistic radioligand for human A3 ARs) [M. Dieckmann, M. Thorand, V. Ozola, C. E. Muiller, in Vorbereitung [Preparation] (2001)]. • [^125I]AB-MECA (for rat-A3 ARs) [Olah et al., Mol. Pharmacol., 45, 978 (1994)]. Description of the Assays That are Used for Testing Substances Production of Tissue Preparations Made from Rat Brains
(§3) The cell decomposing of the cerebral cortex is carried out with a glass-Teflon homogenizer (stages 5-6, 10 seconds) in 0.32 M saccharose solution. The membranes are purified over various centrifuging steps. With centrifuging at 600 g, 4° C., for 10 minutes, a large amount of cell debris is separated via the P1 fraction, and the supernatant (P2 fraction) is further worked up: in the subsequent three centrifuging steps (35,000 g; 4° C.; 60 minutes), a pellet is produced that is resuspended in 50 mmol of TRIS buffer, pH 7.4 with the Ultraturrax (stages 3-4, 3 seconds); the respective supernatant is discarded. The striata are added to cold TRIS buffer, homogenized with the Ultraturrax in stages 3 to 4-(3 seconds) and then centrifuged at 35,000 g, 4° C., for 20 minutes. The supernatant is discarded, and the pellet is resuspended in 50 mmol of TRIS buffer (50 mmol, pH 7.4). The washing process is repeated twice more. The membrane preparations are stored at −80° C. and are held for several months. The cerebral cortex membrane preparation is used for A1-radioligand binding studies, and the striatum is used for A2A-radiologiand binding studies.
(§4) The test substances are dissolved in DMSO to 10 mmol. The final concentration of DMSO in the assay is 2.5% for A1- and A2A-adenosine receptor assays and 1-2% for A2B- and A3-assays. Dilution series of the test substances are produced from the stock solution. Five to eight different test concentrations, which comprise 3 orders of magnitude (e.g., 1 nm to 1000 nm), are used.
Receptor Binding Assay with [^3H]MSX-2 on A2A-Adenosine Receptors:
• 25 μl of DMSO, NECA (800 μmol) or test substance dilutions • 775 μl of TRIS buffer (for production, see above) • 100 μl of [^3H]MSX-2 (final concentration 1 nmol; KD value 8 nmol) • 100 μl of rat-striatum-membrane preparation or preparation of CHO cells, which express the human A2A receptor, incubated with 0.12 IE adenosine-deaminase (protein concentration: 25-75 μg/ml) • 1000 μl of final volume
The assay is performed according to the instructions of the receptor-binding assay with [^3H]CCPA with consideration of the amounts and solutions that are listed above. The incubation time is 30 minutes at 23° C. in an oscillating water bath. The glass fiber filter is introduced 30 minutes before use in 0.5% PEI solution.
(§5) The mean value is calculated from three independent experiments. IC50 and K, values are obtained from the Cheng-Prusoff equation, the concentration and the KD value of the radioligand. For calculation, the program GraphPadPrism™, Version 3.0 (GraphPad, San Diego, Calif., USA), was used.

The target in data set [2] is T2, A1 adenosine receptor (Rattus norvegicus, UniProt P25099).
T2 sequence (P25099 1-326): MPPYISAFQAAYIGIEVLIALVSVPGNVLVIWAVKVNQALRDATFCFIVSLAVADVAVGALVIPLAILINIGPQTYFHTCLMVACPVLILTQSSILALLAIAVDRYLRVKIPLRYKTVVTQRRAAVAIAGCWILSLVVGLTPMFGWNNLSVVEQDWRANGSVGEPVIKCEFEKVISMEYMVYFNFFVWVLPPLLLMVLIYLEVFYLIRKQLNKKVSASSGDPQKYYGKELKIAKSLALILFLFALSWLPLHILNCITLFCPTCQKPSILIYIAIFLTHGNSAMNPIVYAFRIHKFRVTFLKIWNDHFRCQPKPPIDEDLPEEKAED
Description: Radioligand binding with [3H]CCPA on A1-adenosine receptors, rat brain cortex membranes. Also on record: tissue Pel Freez Company (Rogers, Ark., USA); host or cells: rat brain cerebral cortex membranes. The settings on record: Table 2; [3H]CCPA; read-out: A1 K1.
Excerpt: as §1, §2
For the preparations, deep-frozen rat brains of the Pel Freez Company (Rogers, Ark., USA) are used. The rat brains are thawed in 0.32 M saccharose solution, the cortex is cut off, and the striata are prepared outside.
as §3, §4
Radioligand Binding Studies with [^3H]CCPA on A1-Adenosine Receptors:
The mixture is incubated for 90 minutes in an oscillating water bath at 23° C. Then, it is filtered off with a Brandel cell-harvester and washed twice more with ice-cooled TRIS buffer, 50 mmol, pH 7.4 (3 ml). The filter plates are conveyed in scintillation vials, doused with 2.5 ml of Ultima Gold Scintillation cocktail and incubated for at least 6 hours before they are measured in a scintillation counter.
as §5

In data set [3] the target is T2, A1 adenosine receptor. To be noted: cited from earlier work.
Data set [4] has as its target T1, A2A adenosine receptor. The settings on record: Table 1, literature values; cited from earlier work.
The next data set addresses A2A-receptors. To be noted: read-out: KiA2A; cited from earlier work.
The conditions of data set [5]: in words; cited from earlier work.
For data set [6] the following is noted: in words; cited from earlier work. This is another data set of the same source.
[7] abbreviates: Table 1, literature values, read-out: A1 K1.

Read-outs that look alike come from different tables or passages of the source.

T1 sequence (P30543 whole entry): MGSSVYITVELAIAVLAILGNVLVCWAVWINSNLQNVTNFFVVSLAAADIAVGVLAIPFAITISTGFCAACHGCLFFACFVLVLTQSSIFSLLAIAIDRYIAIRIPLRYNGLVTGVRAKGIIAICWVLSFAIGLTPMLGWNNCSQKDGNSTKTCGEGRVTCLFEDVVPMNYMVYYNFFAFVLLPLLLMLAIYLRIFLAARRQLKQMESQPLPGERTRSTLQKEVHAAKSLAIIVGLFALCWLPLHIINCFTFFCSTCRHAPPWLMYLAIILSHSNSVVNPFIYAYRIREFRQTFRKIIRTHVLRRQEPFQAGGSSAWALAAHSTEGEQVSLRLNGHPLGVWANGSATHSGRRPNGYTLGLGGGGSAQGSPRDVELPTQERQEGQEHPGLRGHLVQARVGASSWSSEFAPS

On to `Nc1nc2ccc(Cl)cc2c2nc(-c3ccco3)nn12` [CGS-15943, 9-Chloro-2-(2-furanyl)-[1,2,4]triazolo[1,5-c]quinazoline-5-amine], for which the selectivity result in the data set with adenosine receptors is reported as “inadequate selectivity”.
Turning to `CC(Oc1ccccc1)c1nnc2c(-c3cc(Cl)[nH]n3)nc3ccccc3n12` (stereo not drawn) [Y = C—CH—(CH3)—O-Ph, R5 = H, R6 = Cl], the results for the Ki on A2A adenosine receptor [1] and at A1 adenosine receptor [2] were 1.18 µM and 100 nM, respectively.
As to `Clc1cc(-c2nc3ccccc3n3c(-c4ccsc4)nnc23)n[nH]1` [Y = C-(3-Thienyl), R5 = H, R6 = Cl], the Ki is 4.1 µM at A2A adenosine receptor [1] and 330 nM at A1 adenosine receptor [2].
Take `Clc1cc(-c2nc3ccccc3n3c(-c4cccs4)nnc23)[nH]n1` [R = 2-Thienyl]: the Ki on A1 adenosine receptor [3] (setting [7]) was 710 ± 60 nM. The “A2A % Inhibition @ 25 μmol” value at A2A adenosine receptor [4] is reported as “(22% ± 13%)”.
For the compound `Clc1cc(-c2nc3ccccc3n3c(COCc4ccccc4)nnc23)n[nH]1` [Y = C—CH2—O—CH2-Ph, R5 = H, R6 = Cl], the “A2A % inhib. @ 10 μmol” value on A2A adenosine receptor [1] (10 μmol) is “(3%)”. The Ki is greater than 10 µM on A2A adenosine receptor [1] and 620 nM on A1 adenosine receptor [2].
In the case of `Nc1nc2c(cnn2CCc2ccccc2)c2nc(-c3ccco3)nn12` [Sch-52861, 2-(2-Furanyl)-7-(2-phenylethyl)-7H-pyrazolo[4,3-e][1,2,4]triazolo[1,5-c]pyrimidine-5-amine], the Ki at A2A-receptors is 2.3 nM. The oral bioavailability entry in data set [5] is given as “poor oral bioavailability”. The solubility result in data set [6] was “inadequate solubility”.
Consider `Clc1cc(-c2nc3ccccc3n3c(-c4ccccc4)nnc23)[nH]n1` [R = —C6H5], for which the Ki at A1 adenosine receptor [3] (setting [7]) was 1620 ± 680 nM. At A2A adenosine receptor [4], the “A2A % Inhibition @ 25 μmol” value is “(0%)”.
For `Clc1cc(-c2nc3ccccc3n3c(Cc4cccs4)nnc23)[nH]n1` [R = 2-Thienylmethyl], on A1 adenosine receptor [3] (read-out: KiA1), the Ki was 200 nM. Moreover, the “A2A % Inhibition @ 25 μmol” value at A2A adenosine receptor [4] is “(21% ± 10%)”.
Take `Clc1cc(-c2nc3ccccc3n3c(Cc4ccccc4)nnc23)[nH]n1` [R =—CH2C6H5]: the Ki at A1 adenosine receptor [3] (setting [7]) was 310 ± 90 nM. For the same compound, on A2A adenosine receptor [4], the “A2A % Inhibition @ 25 μmol” value is “(6.1% ± 1.5%)”.
As to `Clc1cc(-c2nc3ccccc3n3c(-c4ccco4)nnc23)[nH]n1` [R = 2-Furyl], the Ki on A1 adenosine receptor [3] (setting [7]) is 410 ± 160 nM. Moreover, the “A2A % Inhibition @ 25 μmol” value on A2A adenosine receptor [4] is listed as “(31% ± 3%)”.
